Values quoted from earlier work as cited in patent publication US20240065975A1, “OTF COMPOUND CONNECTED BY SEWING” (LTS LOHMANN THERAPIE-SYSTEME AG, priority 2021, published 2024).

Conditions: compared with (R)-ketamine

Q: With `CNC1(c2ccccc2Cl)CCCCC1=O` (racemic) [(S)-ketamine, (S)-(±)-2-(2-chlorophenyl)-2-(methylamino)cyclohexan-1-one] as the compound, how does the “analgesic and anaesthetic potency relative to the (R) form” value read?
A: Its value is “approximately three times higher”.
